The nature of test [1]: Vero E6 cell cytotoxicity, dose response, cytotoxicity control for non-replicating M. tuberculosis project, secondary assay (AID 492998). Type of test: functional, VeroE6. As to conditions: Vero C1008.
A short description of test [2]: HEp-2 cell cytotoxicity, dose response, cytotoxicity control for RSV inhibitor project, HTS (AID 2410). Type of test: functional. Particulars: human respiratory syncytial virus.
Test [3] can be described thus: THP-1 cell cytotoxicity, dose response, cytotoxicity control for non-replicating M. tuberculosis project (AID 489025). Type of test: functional.
Test [4] is described as follows: cells. The format is functional.
The test system of test [5] is Vero. The experiment in a line: host cell cytotoxicity of antiviral hits, dose response, cytotoxicity control for West Nile virus antiviral project, secondary assay (AID 1650). The format is functional. Particulars: Chlorocebus sabaeus.
The target of test [6] is T1, Neuropeptide Y receptor type 2 (Homo sapiens, UniProt P49146).
T1 sequence (P49146 whole entry): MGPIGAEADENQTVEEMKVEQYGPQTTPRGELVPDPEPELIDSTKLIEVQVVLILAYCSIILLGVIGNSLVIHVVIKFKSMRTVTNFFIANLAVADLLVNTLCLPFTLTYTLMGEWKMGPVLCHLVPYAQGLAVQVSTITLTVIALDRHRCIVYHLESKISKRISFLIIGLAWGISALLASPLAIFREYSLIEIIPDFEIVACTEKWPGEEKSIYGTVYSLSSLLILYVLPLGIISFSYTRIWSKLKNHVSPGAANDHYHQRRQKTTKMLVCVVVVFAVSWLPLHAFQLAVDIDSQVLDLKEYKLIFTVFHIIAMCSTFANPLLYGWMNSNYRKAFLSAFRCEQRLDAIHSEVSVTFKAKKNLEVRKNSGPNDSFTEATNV
The experiment in a line: Fluorescence-based cell-based high-throughput dose response assay for agonists of NPY-Y2. [Related pubchem assays: 1703 (Screening assay (CNGC inhibitors).), 1359 (Screening assay (NPY-Y2 potentiators or agonists).), 1304 (Screening assay (NPY-Y1 potentiators or agonists).), 1710 (Screening assay (NPY-Y2 agonists).), 1791 (Summary AID.)]. Type of test: functional.

Test [7] deals with HEK293. In words: Fluorescence-based counterscreen for potentiators or agonists of NPY-Y2: cell-based high-throughput dose response assay to identify inhibitors of cyclic nucleotide gated ion channel (CNGC) activity. In this assay, the parental HEK293 cell line transfected with a cyclic-nucleotide gated ion channel (CNGC)-based cAMP sensor is used to measure inhibition of isoproterenol-induced CNGC activity by test compound. Type of test: functional. Particulars: Homo sapiens. In general terms: Counterscreens check selectivity or assay interference.

Test [8] addresses T2, Heat shock factor protein 1 (Mus musculus, UniProt P38532).
T2 sequence (P38532 whole entry): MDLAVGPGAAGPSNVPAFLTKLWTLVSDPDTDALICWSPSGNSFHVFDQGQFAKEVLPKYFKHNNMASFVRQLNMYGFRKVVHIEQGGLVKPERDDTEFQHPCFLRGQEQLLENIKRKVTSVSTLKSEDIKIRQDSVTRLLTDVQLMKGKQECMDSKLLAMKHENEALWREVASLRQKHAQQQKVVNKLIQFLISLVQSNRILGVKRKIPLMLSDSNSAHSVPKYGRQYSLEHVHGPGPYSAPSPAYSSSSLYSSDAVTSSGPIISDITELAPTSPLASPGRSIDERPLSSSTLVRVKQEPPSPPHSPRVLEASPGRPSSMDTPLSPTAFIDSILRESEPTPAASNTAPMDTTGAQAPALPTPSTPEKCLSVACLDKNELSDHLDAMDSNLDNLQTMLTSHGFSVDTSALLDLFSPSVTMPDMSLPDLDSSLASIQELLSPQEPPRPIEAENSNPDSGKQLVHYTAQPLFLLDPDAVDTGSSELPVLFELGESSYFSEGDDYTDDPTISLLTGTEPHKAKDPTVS
In words: HSF1 potentiators in luciferase reporter cells, confirmation, cell-based, NIH3T3, luminescence, dose retest (AID 435004).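 Also: stress induced by proteasome inhibitor MG132 added 30 min after compound; luciferase reporter driven by HSF1 response element in NIH3T3 cells; actives raise luminescence as potentiators of the MG132 stress response.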 The format is functional. On the technique in general: In a reporter assay the amount or activity of a reporter protein is the signal.

The target of test [9] is T3, Neuropeptide Y receptor type 1 (Homo sapiens, UniProt P25929).
T3 sequence (P25929 whole entry): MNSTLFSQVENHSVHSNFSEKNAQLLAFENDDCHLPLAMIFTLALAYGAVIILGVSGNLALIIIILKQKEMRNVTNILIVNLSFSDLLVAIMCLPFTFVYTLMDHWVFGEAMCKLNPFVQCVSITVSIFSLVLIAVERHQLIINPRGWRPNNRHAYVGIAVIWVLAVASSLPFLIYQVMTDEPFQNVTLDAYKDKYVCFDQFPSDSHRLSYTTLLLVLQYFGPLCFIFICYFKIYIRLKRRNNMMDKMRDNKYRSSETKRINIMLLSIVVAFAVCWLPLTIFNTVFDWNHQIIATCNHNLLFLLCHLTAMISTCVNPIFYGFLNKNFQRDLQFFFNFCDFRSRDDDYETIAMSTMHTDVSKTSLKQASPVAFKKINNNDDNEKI
In words: Fluorescence-based counterscreen for agonists of NPY-Y2: cell-based high-throughput dose response assay for agonists of NPY-Y1. The format is functional.

Test [10] in a line: A Cell Based Secondary Assay To Explore Cytotoxicity of Compounds that Sensitize Mycobacterium Tuberculosis to Beta-Lactam Antibiotics. The format is functional.
Test [11] can be described thus: cytotoxicity toward NIH3T3 fibroblasts, dose response, counter-screen, cell-based, ATP luminescence, mouse fibroblasts (AID 2010).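 Also: cells exposed to compound for about 90 hours before reading.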 Type of test: functional.
Test [12] can be described thus: inhibitors of intracellular T. cruzi replication, confirmation, NIH3T3 host cells, beta-gal luminescence (AID 2044).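 Also: intracellular parasites grown in NIH/3T3 mouse fibroblasts as host cells; luminescent beta-galactosidase reporter signal from transgenic T. cruzi replicating inside host cells; inhibitors lower the luminescence signal.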 The format is functional, cell-based.
Test [13] addresses Voltage-dependent T-type calcium channel subunit alpha-1H (Homo sapiens, UniProt O95180). Type of test: functional.
For test [14], the system named is HEK293. The experiment in a line: cells. Particulars: Homo sapiens. Type of test: functional, cell-based.
The subject of test [15] is HEK293. In words: NOD1 signaling inhibitors, primary screen, cell-based, luminescence, uHTS (AID 1578). Type of test: functional. Particulars: Homo sapiens.
Test [16] deals with Nucleotide-binding oligomerization domain-containing protein 2 (Homo sapiens, UniProt Q9HC29). The experiment in a line: NOD2 signaling inhibitors, cell-based, luminescence, uHTS, HEK293 (AID 1566). Type of test: functional.
Sequence of Nucleotide-binding oligomerization domain-containing protein 2 (Q9HC29 whole entry, the tested form may be a part): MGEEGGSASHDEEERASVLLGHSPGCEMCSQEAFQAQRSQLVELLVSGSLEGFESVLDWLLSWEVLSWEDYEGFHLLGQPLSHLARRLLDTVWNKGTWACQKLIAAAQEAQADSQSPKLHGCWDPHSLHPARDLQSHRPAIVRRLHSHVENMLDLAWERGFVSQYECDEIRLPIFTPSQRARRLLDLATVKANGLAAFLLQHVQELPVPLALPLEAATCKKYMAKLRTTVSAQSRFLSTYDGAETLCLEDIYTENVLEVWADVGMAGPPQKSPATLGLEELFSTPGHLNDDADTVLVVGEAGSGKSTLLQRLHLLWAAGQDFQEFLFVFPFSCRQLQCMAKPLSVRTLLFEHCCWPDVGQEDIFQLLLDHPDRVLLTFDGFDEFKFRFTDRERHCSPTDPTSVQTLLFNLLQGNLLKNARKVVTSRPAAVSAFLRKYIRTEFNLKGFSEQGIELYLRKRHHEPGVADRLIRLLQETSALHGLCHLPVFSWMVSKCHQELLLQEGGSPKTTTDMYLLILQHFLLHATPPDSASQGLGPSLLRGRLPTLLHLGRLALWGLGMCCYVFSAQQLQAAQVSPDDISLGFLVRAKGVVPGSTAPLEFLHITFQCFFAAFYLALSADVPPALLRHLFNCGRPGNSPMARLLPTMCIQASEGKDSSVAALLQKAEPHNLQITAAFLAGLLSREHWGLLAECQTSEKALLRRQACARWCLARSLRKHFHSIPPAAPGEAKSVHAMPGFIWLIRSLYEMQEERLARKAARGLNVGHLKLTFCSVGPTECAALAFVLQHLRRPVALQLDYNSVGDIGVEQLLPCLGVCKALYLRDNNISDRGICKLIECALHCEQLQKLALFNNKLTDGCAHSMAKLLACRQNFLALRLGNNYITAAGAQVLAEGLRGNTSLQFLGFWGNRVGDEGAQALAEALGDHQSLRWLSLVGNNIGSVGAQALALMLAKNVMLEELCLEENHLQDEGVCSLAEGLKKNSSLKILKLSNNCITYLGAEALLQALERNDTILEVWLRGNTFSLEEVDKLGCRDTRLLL
In test [17] the test system is HEK293. The experiment in a line: cells. Type of test: functional, cell-based. As to conditions: Homo sapiens. This is another data set of the same source.
For test [18], the system named is HEK293. In words: NOD2 signaling inhibitors in MDP-stimulated cells, cell-based, uHTS, luminescence (AID 2001). Type of test: functional. As to conditions: Homo sapiens.
The test system of test [19] is HEK293. In words: cells. Particulars: Homo sapiens. Type of test: functional, cell-based. This is another data set of the same source.
Test [20] concerns the target DNA dC->dU-editing enzyme APOBEC-3G (Homo sapiens, UniProt Q9HC16). In words: Dose Response confirmation of small molecule APOBEC3G DNA Deaminase Inhibitors via a fluorescence-based single-stranded DNA deaminase assay. [Related pubchem assays (depositor defined):AID493012, AID493028]. The format is functional.
Test [21] has as its target DNA dC->dU-editing enzyme APOBEC-3A (Homo sapiens, UniProt P31941). The experiment in a line: APOBEC3A DNA deaminase inhibitors, dose response, biochemical (AID 504722). The format is functional.
Test [22] concerns the target Lysosomal acid glucosylceramidase (Homo sapiens, UniProt P04062). In words: Dose response cell-based high throughput screening assay to identify enhancers of beta-glucosidase activity. [Related pubchem assays: 784 ]. Type of test: functional.
A short description of test [23]: cells.
The target of test [24] is Dual specificity protein phosphatase 3 (Homo sapiens, UniProt P51452). In words: SAR VHR1 Fluorescent Assay for In Vitro dose response studies Set 2. [Related pubchem assays (depositor defined):AID1654, AID1661, AID1878]. The format is functional.
Sequence of Dual specificity protein phosphatase 3 (P51452 whole entry): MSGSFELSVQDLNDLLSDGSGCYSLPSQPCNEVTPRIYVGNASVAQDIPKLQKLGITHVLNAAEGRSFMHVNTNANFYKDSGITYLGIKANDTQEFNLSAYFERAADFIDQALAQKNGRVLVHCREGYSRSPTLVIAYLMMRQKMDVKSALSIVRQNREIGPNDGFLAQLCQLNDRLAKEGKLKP
In test [25] the target is T4, Tyrosine-protein phosphatase non-receptor type 7 (Homo sapiens, UniProt P35236).
T4 sequence (P35236 whole entry): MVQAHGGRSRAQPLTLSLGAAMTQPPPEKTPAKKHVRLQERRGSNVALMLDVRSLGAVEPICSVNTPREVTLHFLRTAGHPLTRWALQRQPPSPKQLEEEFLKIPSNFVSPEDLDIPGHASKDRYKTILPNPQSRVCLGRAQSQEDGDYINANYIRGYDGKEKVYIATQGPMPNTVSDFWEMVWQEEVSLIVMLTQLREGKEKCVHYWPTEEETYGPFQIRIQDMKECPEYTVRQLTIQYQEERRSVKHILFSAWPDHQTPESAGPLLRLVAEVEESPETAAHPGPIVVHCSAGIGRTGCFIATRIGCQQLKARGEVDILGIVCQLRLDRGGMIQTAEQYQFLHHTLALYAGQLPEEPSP
The experiment in a line: SAR analysis of chemical inhibitors of HePTP using a Fluorescent assay - Set 2. [Related pubchem assays (depositor defined):AID1059, AID1077, AID1661, AID2085, AID521]. Type of test: functional.

The nature of test [26]: THP-1 cell cytotoxicity, dose response, cytotoxicity control for Vif-APOBEC3G degradation inhibitor project, THP-1 cells (AID 1117359). The format is functional. As to conditions: Human immunodeficiency virus 1, THP-1.

The source made the active and inactive calls.

Sequence of Lysosomal acid glucosylceramidase (P04062 whole entry): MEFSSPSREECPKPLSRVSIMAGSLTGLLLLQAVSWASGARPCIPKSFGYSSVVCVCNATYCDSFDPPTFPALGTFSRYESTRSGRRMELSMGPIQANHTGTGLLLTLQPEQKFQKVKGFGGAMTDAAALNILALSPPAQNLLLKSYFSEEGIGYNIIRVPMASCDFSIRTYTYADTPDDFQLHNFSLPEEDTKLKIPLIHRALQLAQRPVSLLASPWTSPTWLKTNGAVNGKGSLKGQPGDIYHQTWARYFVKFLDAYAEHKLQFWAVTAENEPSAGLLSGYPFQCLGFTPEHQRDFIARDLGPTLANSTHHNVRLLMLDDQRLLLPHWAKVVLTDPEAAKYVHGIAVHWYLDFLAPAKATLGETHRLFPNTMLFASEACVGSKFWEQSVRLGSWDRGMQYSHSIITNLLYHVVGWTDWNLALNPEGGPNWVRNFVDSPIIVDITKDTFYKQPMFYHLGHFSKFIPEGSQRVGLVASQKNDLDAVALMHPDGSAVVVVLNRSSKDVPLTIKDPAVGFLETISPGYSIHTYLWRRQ
Sequence of DNA dC->dU-editing enzyme APOBEC-3A (P31941 whole entry): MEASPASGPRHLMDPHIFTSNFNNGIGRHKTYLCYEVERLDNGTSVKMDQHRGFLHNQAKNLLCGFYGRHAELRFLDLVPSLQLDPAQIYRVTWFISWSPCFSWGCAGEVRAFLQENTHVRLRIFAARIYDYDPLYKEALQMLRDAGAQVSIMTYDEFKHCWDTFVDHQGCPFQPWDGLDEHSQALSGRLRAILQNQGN
Sequence of DNA dC->dU-editing enzyme APOBEC-3G (Q9HC16 whole entry): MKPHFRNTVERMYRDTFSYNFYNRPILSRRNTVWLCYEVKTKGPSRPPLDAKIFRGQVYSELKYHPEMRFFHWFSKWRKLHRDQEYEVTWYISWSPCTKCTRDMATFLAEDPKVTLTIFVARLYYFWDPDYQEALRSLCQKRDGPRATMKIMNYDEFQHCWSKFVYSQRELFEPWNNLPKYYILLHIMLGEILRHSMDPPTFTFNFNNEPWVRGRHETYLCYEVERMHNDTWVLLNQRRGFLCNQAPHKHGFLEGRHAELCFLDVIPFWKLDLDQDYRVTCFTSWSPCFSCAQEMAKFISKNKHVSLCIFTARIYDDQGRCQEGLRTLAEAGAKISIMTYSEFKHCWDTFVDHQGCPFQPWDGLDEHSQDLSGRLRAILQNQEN
Sequence of Voltage-dependent T-type calcium channel subunit alpha-1H (O95180 whole entry): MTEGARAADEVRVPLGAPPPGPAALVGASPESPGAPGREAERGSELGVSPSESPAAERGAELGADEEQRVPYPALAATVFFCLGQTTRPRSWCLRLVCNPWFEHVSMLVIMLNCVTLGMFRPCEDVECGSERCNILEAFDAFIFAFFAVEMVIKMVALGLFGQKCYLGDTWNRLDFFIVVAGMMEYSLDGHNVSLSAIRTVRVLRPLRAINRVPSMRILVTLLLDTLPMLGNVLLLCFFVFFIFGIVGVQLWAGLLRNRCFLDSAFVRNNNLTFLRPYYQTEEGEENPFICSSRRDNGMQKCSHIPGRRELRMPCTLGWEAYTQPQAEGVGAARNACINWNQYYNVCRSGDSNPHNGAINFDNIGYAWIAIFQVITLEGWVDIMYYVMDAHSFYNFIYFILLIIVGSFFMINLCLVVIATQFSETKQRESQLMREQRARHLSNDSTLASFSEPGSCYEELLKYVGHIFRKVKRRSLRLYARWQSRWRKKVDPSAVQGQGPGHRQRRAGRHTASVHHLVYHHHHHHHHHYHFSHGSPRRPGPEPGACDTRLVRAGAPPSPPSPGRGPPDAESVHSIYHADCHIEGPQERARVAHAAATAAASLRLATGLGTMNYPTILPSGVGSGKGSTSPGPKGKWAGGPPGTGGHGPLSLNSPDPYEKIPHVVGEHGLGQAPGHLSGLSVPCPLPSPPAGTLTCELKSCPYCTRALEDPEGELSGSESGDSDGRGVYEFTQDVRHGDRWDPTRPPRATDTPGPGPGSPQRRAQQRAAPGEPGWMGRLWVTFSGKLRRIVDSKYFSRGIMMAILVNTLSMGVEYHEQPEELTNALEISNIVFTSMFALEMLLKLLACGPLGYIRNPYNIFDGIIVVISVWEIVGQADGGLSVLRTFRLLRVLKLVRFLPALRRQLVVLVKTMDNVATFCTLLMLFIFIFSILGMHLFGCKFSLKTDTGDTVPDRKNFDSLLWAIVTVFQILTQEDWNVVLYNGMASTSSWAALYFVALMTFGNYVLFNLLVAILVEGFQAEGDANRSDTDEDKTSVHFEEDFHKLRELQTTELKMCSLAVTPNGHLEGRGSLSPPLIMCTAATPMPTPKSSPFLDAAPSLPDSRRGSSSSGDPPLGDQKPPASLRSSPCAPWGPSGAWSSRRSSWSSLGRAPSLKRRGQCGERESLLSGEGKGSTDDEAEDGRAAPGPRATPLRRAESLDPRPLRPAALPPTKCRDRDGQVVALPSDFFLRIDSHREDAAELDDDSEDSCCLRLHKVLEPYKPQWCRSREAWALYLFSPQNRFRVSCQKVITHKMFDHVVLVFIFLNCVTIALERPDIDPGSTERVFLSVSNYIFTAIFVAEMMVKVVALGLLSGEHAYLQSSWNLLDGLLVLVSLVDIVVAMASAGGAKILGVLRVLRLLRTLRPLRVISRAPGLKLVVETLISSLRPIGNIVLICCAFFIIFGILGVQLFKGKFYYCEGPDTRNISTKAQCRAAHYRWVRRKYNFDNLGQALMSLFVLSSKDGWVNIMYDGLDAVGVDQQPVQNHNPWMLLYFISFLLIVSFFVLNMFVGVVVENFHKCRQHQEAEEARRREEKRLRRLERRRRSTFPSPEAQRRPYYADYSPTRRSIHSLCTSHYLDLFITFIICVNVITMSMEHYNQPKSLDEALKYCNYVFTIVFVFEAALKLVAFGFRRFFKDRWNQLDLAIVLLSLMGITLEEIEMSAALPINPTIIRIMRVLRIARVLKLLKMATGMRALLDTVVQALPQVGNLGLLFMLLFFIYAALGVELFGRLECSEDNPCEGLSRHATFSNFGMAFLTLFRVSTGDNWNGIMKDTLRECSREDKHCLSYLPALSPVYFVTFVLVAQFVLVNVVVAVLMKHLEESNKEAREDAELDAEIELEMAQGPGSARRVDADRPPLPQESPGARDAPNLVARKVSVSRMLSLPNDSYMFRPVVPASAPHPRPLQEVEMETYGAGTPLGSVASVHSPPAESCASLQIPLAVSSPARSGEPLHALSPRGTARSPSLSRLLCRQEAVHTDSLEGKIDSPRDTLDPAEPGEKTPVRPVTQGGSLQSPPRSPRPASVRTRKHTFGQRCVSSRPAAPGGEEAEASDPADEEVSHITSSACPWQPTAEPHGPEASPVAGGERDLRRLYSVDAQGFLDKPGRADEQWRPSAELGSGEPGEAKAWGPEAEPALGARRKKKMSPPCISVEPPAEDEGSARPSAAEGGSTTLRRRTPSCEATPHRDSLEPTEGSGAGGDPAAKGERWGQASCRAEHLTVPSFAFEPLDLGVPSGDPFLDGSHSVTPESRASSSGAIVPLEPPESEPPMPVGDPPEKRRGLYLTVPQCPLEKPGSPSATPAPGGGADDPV

The term CC50 denotes the concentration giving 50% cytotoxicity. For orientation: IC50 means the point on the concentration scale where inhibition reaches its midpoint. `NCCOc1ccc(C23CC4CC(CC(C4)C2)C3)cc1`: the CC50 is > 20 µM (active) in [1], 13.1 µM (active) in test [2], 11.4 µM (active) in test [3] and 10.7 µM (active) in [5]. In [4], the IC50 is 23.4 µM (active).
What is called EC50 is the midpoint of the concentration-response curve. `O=C(c1ccc(F)cc1F)C1CCN(c2ccc([N+](=O)[O-])cn2)CC1`: the EC50 was 27.5 µM (not active) in test [6], > 35.4 µM (not active) in test [7], > 260 µM (inactive) in test [8] and > 35.4 µM (not active) in [9].
In the case of `CCC1Nc2ncnc(N3CCN(c4ccccc4)CC3)c2N(Cc2ccc(Br)cc2)C1=O` (centres undefined), the CC50 in test [10] was > 40 µM (active). The EC50 in [11] is > 60 µM (not active); in test [12], 1.59 µM (active).
On to `Cc1nc2ccccc2c2oc(C(=O)NCC3COc4ccccc4O3)cc12` (centres undefined), for which the EC50 is 7.77 µM (active) in [13], 4.69 µM (active) in test [15] and 4.75 µM (active) in test [16]. Further, the IC50 in [14] is > 20 µM (inactive); in [17], 4.14 µM (active); in [18], 3.93 µM (inactive); in test [19] it was 8.6 µM (active).
Regarding `N#Cc1c(-c2ccncc2)c2c([nH]c1=S)CCCC2`, the figures for the IC50 in test [20] and in test [21] were 2.21 µM (active) and > 100 µM (inactive), respectively.
For `N#Cc1c(S)nc2c(c1-c1cccnc1)CCCC2` the same measures were 2.72 µM (active) and > 100 µM (inactive).
Regarding `Cc1ccc(C)c(N(C)S(=O)(=O)c2cccc3nsnc23)c1`, the EC50 in test [22] is > 50 µM (not active).
As for `COc1cccc(NC(=O)C2C3C=CC4(O3)C2C(=O)N(C(C)C)C4C(=O)NC2CCCCC2C)c1` (centres undefined), the EC50 in test [22] is > 50 µM (not active).
As to `Cc1cccc2nc(COc3ccc(Cl)c4cccnc34)cn12`, in test [23], the IC50 is 33.2 µM (active).
In the case of `Cc1ccc(-c2nc3ccccc3o2)cc1NC(=S)NC(=O)/C=C/c1ccco1`, the CC50 in test [10] is 32.9 µM (active).
With `NS(=O)(=O)c1ccc(NC(=S)N2CCN(Cc3ccccc3)CC2)cc1`, the IC50 in test [24] is 38.1 µM (active); in [25], 49.7 µM (active).
`O=C(N/N=C\c1ccc(Cl)cc1)C1=NOC2COC3(CCN(c4ccc([N+](=O)[O-])cc4)CC3)OCC12` (centres undefined): the concentration for a half-maximal effect (EC50) in test [6], in test [7] and in [9] was > 35.4 µM (not active) each time. The cytotoxic concentration (CC50) in test [26] is > 40 µM (active).
Consider `c1ccc(N2CCN(Cc3nc4ccccc4[nH]3)CC2)nc1` [ABT-724], for which the IC50 in test [23] is 24 µM (active).

Values taken from ChEMBL document CHEMBL1201862, “PubChem BioAssay data set” (2004).
